Laboratory results: article PMC6792352, “Limited Chemical Structural Diversity Found to Modulate Thyroid Hormone Receptor in the Tox21 Chemical Library” (Environmental Health Perspectives, 2019)
Counter-ions that a name gives are not always drawn.

Assay: in vitro
Details: rat, gh3-tre-luc cells, AC50 (uM) modified / 1000

SMILES | CC50 at 24 h
CCCC[N+]1(C)[C@@H]2CC(OC(=O)[C@H](CO)c3ccccc3)C[C@H]1[C@@H]1O[C@@H]12 (stereo partly drawn) [Butylscopolammonium bromide] | > 50 µM
O=C(CCN1CCN(CCO)CC1)N1c2ccccc2Sc2ccc(C(F)(F)F)cc21 [Ftorpropazine] | 16.3 µM
COc1ccc(/C=N/NC(=O)c2ccncc2)cc1OC [Verazide] | > 50 µM
CN1CCC(=C2c3ccccc3CCc3sccc32)CC1 [Pizotyline] | 10.6 µM
CCN(CC)CCOc1ccc(Cc2ccccc2)cc1 [Tesmilifene] | 10.9 µM
C[N+](C)(C)CCOC(=O)CCC(=O)OCC[N+](C)(C)C [Succinylcholine chloride] | > 50 µM
CCCCCCCCCCCCCCCCCCOCC(COP(=O)([O-])OCC[N+](C)(C)C)OC (stereo not drawn) [Edelfosine] | 43.1 µM
CCC(C)(C)C(=O)O [2,2-Dimethylbutanoic acid] | > 90 µM
CC(O)C(=O)O (stereo not drawn) [Calcium lactate] | > 90 µM
CC(C)c1cccc(C(C)C)c1NC(=O)NS(=O)(=O)c1cc(C(C)(C)O)co1 [CP-465394] | > 90 µM
C[C@]12CC[C@@H]3c4ccc(O)cc4CC[C@H]3[C@@H]1C[C@@H](O)[C@@H]2O [Estriol] | > 90 µM
O=C(NCN1CCOCC1)c1cnccn1 [Morphazinamide] | > 50 µM
O=C1NC(=O)c2ccccc21 [Potassium 1,3-dioxo-1,3-dihydroisoindol-2-ide] | > 90 µM
CCCc1ccccc1O [2-Propylphenol] | > 90 µM
CC1=CCC(O)(C(C)C)CC1 (stereo not drawn) [4-Methyl-1-(propan-2-yl)cyclohex-3-en-1-ol] | > 90 µM
CCCCCCCC/C=C\CCCCCCCC(=O)OCC(O)CO (stereo not drawn) [Glyceryl monooleate] | > 90 µM
NC(N)=O [Urea] | > 100 µM
COC(=O)C1=C(C)NC(C)=C(C(=O)O[C@@H]2CCCN(Cc3ccccc3)C2)[C@@H]1c1cccc([N+](=O)[O-])c1 (racemic) [rac Benidipine hydrochloride] | 25.5 µM
CN1C(=O)CC[C@H]1c1cccnc1 [Cotinine] | > 90 µM
Cc1ccccc1C=O [2-Tolualdehyde] | > 90 µM
O=C(O)c1ccc(Cl)cc1Cl [2,4-Dichlorobenzoic acid] | > 90 µM
Cc1ccc(/C(=C\CN2CCCC2)c2ccccn2)cc1 [Triprolidine hydrochloride monohydrate] | 58.4 µM
CC(CC=O)c1ccccc1 (stereo not drawn) [3-Phenylbutyraldehyde] | > 90 µM

SMILES | CC50 at 24 h
COc1cc(-c2nc(NC(=O)c3cc4cc(C)cc(C)c4n3CC(=O)O)sc2CCC2CCCCC2)c(OC)cc1Cl [SR146131 trifluoroacetate (1:1)] | 12.1 µM
CCOC(=O)c1nc(C(Cl)(Cl)Cl)n(-c2ccc(Cl)cc2Cl)n1 [Fenchlorazole-ethyl] | 52.1 µM
CC(=O)OCC(=O)Nc1cc(C#N)cc(NC(=O)COC(C)=O)c1Cl [Acreozast] | > 50 µM
O=C(NC(=O)c1c(F)cccc1F)Nc1cc(Cl)c(Oc2ncc(C(F)(F)F)cc2Cl)c(Cl)c1 [Chlorfluazuron] | 71.4 µM
CCC/C=C(/C=O)CC [2-Ethyl-2-hexenal] | > 90 µM
CN/C(=N/CCSCc1nc[nH]c1C)NC#N [Cimetidine] | > 90 µM
C[N+]1(C)[C@@H]2CC(OC(=O)[C@H](CO)c3ccccc3)C[C@H]1[C@@H]1O[C@@H]12 (stereo partly drawn) [Scopolamine methylbromide] | > 50 µM
OC(CCl)CCl [1,3-Dichloro-2-propanol] | > 90 µM
CC/C=C\CCOC(C)OCC (stereo not drawn) [Acetaldehyde ethyl cis-3-hexenyl acetal] | > 70 µM
CC(C)CCCCCOC(=O)c1ccccc1C(=O)OCCCCCC(C)C [Diisooctyl phthalate] | > 90 µM
CCOCCOC(C)=O [2-Ethoxyethyl acetate] | > 90 µM
CNC(=O)Oc1ccccc1OC(C)C [Propoxur] | > 90 µM
C[C@H](O)C(=O)Nc1c(I)c(C(=O)NC(CO)CO)c(I)c(C(=O)NC(CO)CO)c1I [Iopamidol] | > 20 µM
O=C(NS(=O)(=O)/C=C/c1cccs1)c1ccc(F)cc1Br [PharmaGSID_48518] | > 90 µM
C=CC[N+]1([C@H]2C[C@H]3[C@@H]4CC[C@H]5C[C@H](O)[C@@H](N6CCOCC6)C[C@]5(C)[C@H]4CC[C@]3(C)[C@H]2OC(C)=O)CCCC1 [Rocuronium bromide] | > 50 µM
CCOC(=O)COc1ccc2c(C)c(CCN(CC)CC)c(=O)oc2c1Cl [Cloricromen hydrochloride] | 31.2 µM
CN(C1CCCCC1)C1CCCCC1 [N-Cyclohexyl-N-methylcyclohexanamine] | > 90 µM
COC(=O)CCCC(=O)OC [Dimethyl glutarate] | > 90 µM
CCC(C)C(C)=O (stereo not drawn) [3-Methyl-2-pentanone] | > 90 µM
CC(CCC(=O)O)(c1ccc(O)cc1)c1ccc(O)cc1 [Diphenolic acid] | > 90 µM
O=C(O)C(=O)Cc1ccccc1 [Phenylpyruvic acid] | > 90 µM
CCCC(C)C [2-Methylpentane] | > 90 µM
C[C@@H]1CN(CCCn2c3ccccc3c3ccccc32)C[C@H](C)N1 [Rimcazole dihydrochloride] | 7.99 µM

SMILES | CC50 at 24 h
CC(=O)O[C@H]1C[C@@]2(C)[C@@H](C[C@@H](O)[C@H]3[C@@]4(C)CC[C@@H](O)[C@@H](C)[C@@H]4CC[C@@]32C)/C1=C(\CCC=C(C)C)C(=O)O [Fusidate sodium] | > 50 µM
CC(=O)Oc1ccccc1C(=O)O [Aspirin] | > 90 µM
C1CCC(SSC2CCCCC2)CC1 [Dicyclohexyl disulfide] | > 90 µM
IC(I)I [Iodoform] | > 90 µM
Nc1nc(Cl)cc(Cl)n1 [2-Amino-4,6-dichloropyrimidine] | > 90 µM
CCN(CC)CCC(=O)N1c2ccccc2Sc2ccc(Cl)cc21 [Chloracizine] | 23.2 µM
Oc1ccc2c(c1)Cc1ccccc1-2 [2-Hydroxyfluorene] | 77.9 µM
COC(c1ccccc1)(c1ccccc1)[C@H](Oc1nc(C)cc(C)n1)C(=O)O [Ambrisentan] | > 50 µM
CC(C)(C)C1CCC(=O)CC1 [4-tert-Butylcyclohexanone] | > 90 µM
CSCc1cnccn1 [(Methylthio)methylpyrazine] | > 200 µM
Cc1ccc([N+](=O)[O-])c(N)c1 [5-Methyl-2-nitroaniline] | > 90 µM
O=C(Oc1ccccc1)Oc1ccccc1 [Diphenylcarbonate] | > 90 µM
CO/N=C(\C(=O)N[C@@H]1C(=O)N2C(C(=O)O)=C(Cn3nnc(C)n3)CS[C@H]12)c1csc(N)n1 [Cefteram] | > 50 µM
NC(=S)NC(N)=S [2,4-Dithiobiuret] | > 90 µM
CCCCCN(CCCCC)C(=O)C(CCC(=O)O)NC(=O)c1ccc(Cl)c(Cl)c1 (stereo not drawn) [Lorglumide sodium] | > 50 µM
CCCCc1ncc(/C=C(\Cc2cccs2)C(=O)O)n1Cc1ccc(C(=O)O)cc1 [Eprosartan mesylate] | > 50 µM
O=c1c2ccccc2nnn1CCl [3-(Chloromethyl)-1,2,3-benzotriazin-4(3H)-one] | > 90 µM
CN(C)C [Trimethylamine hydrochloride] | > 90 µM
CCCCCCCC[N+](C)(CCCCCCCC)CCCCCCCC [Methyltrioctylammonium trifluoromethanesulfonate] | 4.19 µM
CC1(C)[C@@H]2CC[C@@]1(C)[C@H](O)C2 [Isoborneol] | > 90 µM
COc1cccc(C(=O)CCN[C@@H](C)[C@H](O)c2ccccc2)c1 [l-Oxyfedrine hydrochloride] | 13.4 µM

Same assay, conditions: rat, gh3-tre-luc cells, AC50 (uM) modified / 1000, Tox21_110001=Tox21_111833; viability, 1 nM T3 present, 24 h

SMILES | CC50 at 24 h
c1csc(C2(N3CCCCC3)CCCCC2)c1 [Tenocyclidine] | > 50 µM

Same assay, conditions: rat, gh3-tre-luc cells, AC50 (uM) modified / 1000, Tox21_110001=Tox21_112593; viability, 1 nM T3 present, 24 h

SMILES | CC50 at 24 h
CCOC(=O)C1(c2ccccc2)CCN(CCC(C#N)(c2ccccc2)c2ccccc2)CC1 [Diphenoxylate hydrochloride] | > 50 µM

Same assay, conditions: rat, gh3-tre-luc cells, AC50 (uM) modified / 1000, Tox21_110001=Tox21_112825; viability, 1 nM T3 present, 24 h

SMILES | CC50 at 24 h
CCOC(=O)C1(c2ccccc2)CCN(CCC(C#N)(c2ccccc2)c2ccccc2)CC1 [Diphenoxylate hydrochloride] | 19.7 µM

Same assay, conditions: rat, gh3-tre-luc cells, AC50 (uM) modified / 1000, Tox21_110001=Tox21_112865; viability, 1 nM T3 present, 24 h

SMILES | CC50 at 24 h
CCN[C@H](C)Cc1cccc(C(F)(F)F)c1 [(-)-Fenfluramine hydrochloride] | 52.7 µM

Same assay, conditions: rat, gh3-tre-luc cells, AC50 (uM) modified / 1000, Tox21_110001=Tox21_113494; viability, 1 nM T3 present, 24 h

SMILES | CC50 at 24 h
COc1cc(CC(C)N)c(OC)cc1Br (stereo not drawn) [Brolamfetamine hydrobromide] | 25.6 µM

Same assay, conditions: rat, gh3-tre-luc cells, AC50 (uM) modified / 1000, Tox21_110001=Tox21_113529; viability, 1 nM T3 present, 24 h

SMILES | CC50 at 24 h
CC(N)Cc1ccc2c(c1)OCO2 (stereo not drawn) [Tenamfetamine hydrochloride] | > 50 µM

Same assay, conditions: rat, gh3-tre-luc cells, AC50 (uM) modified / 1000, Tox21_110001=Tox21_200172; viability, 1 nM T3 present, 24 h

SMILES | CC50 at 24 h
C=CCc1cc(OC)c2c(c1)OCO2 [Myristicin] | > 100 µM

Same assay, conditions: rat, gh3-tre-luc cells, AC50 (uM) modified / 1000, Tox21_110001=Tox21_201173; viability, 1 nM T3 present, 24 h

SMILES | CC50 at 24 h
CCCCOC(=O)c1ccccc1N [Butyl anthranilate] | > 90 µM

Same assay, conditions: rat, gh3-tre-luc cells, AC50 (uM) modified / 1000, Tox21_110001=Tox21_201562; viability, 1 nM T3 present, 24 h

SMILES | CC50 at 24 h
CNC(=O)Oc1cccc2c1OC(C)(C)O2 [Bendiocarb] | > 90 µM

Same assay, conditions: rat, gh3-tre-luc cells, AC50 (uM) modified / 1000, Tox21_110001=Tox21_201783; viability, 1 nM T3 present, 24 h

SMILES | CC50 at 24 h
C/C=C/c1ccc2c(c1)OCO2 [Isosafrole] | > 90 µM

Same assay, conditions: rat, gh3-tre-luc cells, AC50 (uM) modified / 1000, Tox21_110001=Tox21_302005; viability, 1 nM T3 present, 24 h

SMILES | CC50 at 24 h
CCOC(=O)N(C)C(=O)CSP(=S)(OCC)OCC [Mecarbam] | > 90 µM
